Values after ≈ are worked out from the molar mass of the structure shown.
How the values were obtained:
[1] = Microsome clearance assay, human; format: in vitro ADME; conditions: 0.5 mg/ml protein, 1 mM NADPH, 60 minutes; for microsomal CLint at 5 μM: human, pooled liver microsomes, pH 7.4, human liver microsomes, read-out: Human Liver Microsome Clint (μL/min/mg protein); for Human Liver Microsome Clint (μL/min/mg protein): human liver microsomes, 5 μM
Protocol: (§1) Representative Compounds of the Disclosure were tested in a microsome clearance assay. Pooled liver microsomes (20 mg/ml) from human, male Wister rat, and male CD-1 mouse were obtained from BD Bioscience (Franklin Lakes, N.J. USA). Incubation reaction mixtures contained a final concentration of 0.1M sodium phosphate buffer (pH 7.4), 0.5 mg/ml microsomal protein, 5 μM of test sample and 1 mM NADPH in a total volume of 400 μl. The incubations were done for 60 minutes and 300 μl of the mixtures was transferred to 150 μl of ice cold methanol to terminate reactions. After vortexes for 3 minutes and centrifuged at 4000 rpm at 4° C. for 10 minutes, the clear supernatant was used directly for analysis. The samples were analyzed by Applied Biosystems API 3200 Q TRAP LC/MS/MS system using electrospray ionization mode.

OPM-2 cells = assay: Cell viability assay (OPM-2 cells), CCK-8; format: cell-based; conditions: 5% FBS
In short: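 OPM-2 myeloma cells (20000/well) incubated with serially diluted compound for 24 h at 37 °C, 5% CO2. Viability read by CCK-8 (4 h) absorbance at 450 nm, normalised to vehicle; IC50 from nonlinear regression.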

[2] = biological target: Mcl-1 protein (residues 171-323) (Homo sapiens (Human), UniProt Q07820); assay: Inhibition of Mcl-1 by fluorescence polarization (FP) competitive binding assay with FAM-Bid tracer; conditions: 2 nM FAM-Bid, 20 nM Mcl-1, 30 min, read-out: Mc1-1 (FP)
In short: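 Competitive FP binding of compounds against FAM-Bid tracer (final 2 nM) on Mcl-1 (final 20 nM) in PBS with 0.01% BGG and 0.01% Triton X-100, 5% final DMSO.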

NCI-H929 cells = assay: Cell viability assay (NCI-H929 cells), CCK-8; format: cell-based; conditions: 5% FBS
In short: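 NCI-H929 cells (20000/well) exposed to serially diluted compounds for 24 h at 37 °C, 5% CO2. Viability by CCK-8, absorbance at 450 nm after 1-4 h, normalized to vehicle-treated cells. IC50 by nonlinear regression.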

[3] = Kinetic solubility assay in PBS buffer; format: physicochemical; conditions: for solubility: PBS buffer, pH 6.5, aqueous buffer, thermodynamic from solid, read-out: Solubility (pH 6.5, μg/mL)
Protocol: Representative Compounds of the Disclosure were tested in a kinetic solubility assay in PBS buffer. PBS buffer was prepared by dissolving 4.86 g of potassium dihydrogen phosphate and 5.09 g of disodium hydrogen phosphate dodecahydrate in 1 L of ultrapure water (final pH 6.5). 0.5 mg of test sample was dissolved in 1 mL of methanol and the stock solution was transferred into 2 mL EP tube, and evaporated at 50° C. for 3 h. To the tube was added 1 mL of PBS buffer and the mixture was stirred and shaken for 1-2 h. The solution was allowed to stand overnight and then filtered before HPLC analysis. Another 1.5 mg of the sample was dissolved in 3 mL of methanol to prepare a calibration curve with a series of concentration range of 5-500 μM. The solubility of each sample was determined by the measured peak area in HPLC.

[4] = Microsome clearance assay, rat; format: in vitro ADME; conditions: 0.5 mg/ml protein, 1 mM NADPH, 60 minutes; for microsomal CLint at 5 μM: male, Wister, rat, pooled liver microsomes, pH 7.4, rat liver microsomes, read-out: Rat Liver Microsome Clint (μL/min/mg protein); for Rat Liver Microsome Clint (μL/min/mg protein): rat liver microsomes, 5 μM
Protocol: as §1

[5] = Microsome clearance assay, mouse; format: in vitro ADME; conditions: 0.5 mg/ml protein, 1 mM NADPH, 60 minutes; for microsomal CLint at 5 μM: male, CD-1, mouse, pooled liver microsomes, pH 7.4, mouse liver microsomes, read-out: Mouse Liver Microsome Clint (μL/min/mg protein); for Mouse Liver Microsome Clint (μL/min/mg protein): mouse liver microsomes, 5 μM
Protocol: as §1

Chain of Mcl-1 protein (residues 171-323) (Q07820 171-323): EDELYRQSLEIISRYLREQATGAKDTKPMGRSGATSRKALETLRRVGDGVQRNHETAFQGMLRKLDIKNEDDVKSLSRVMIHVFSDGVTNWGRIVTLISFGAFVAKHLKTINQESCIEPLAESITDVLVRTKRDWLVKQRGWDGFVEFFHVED

Row | SMILES | microsomal CLint at 5 μM [1] | IC50 [2] | IC50 (NCI-H929 cells; Homo sapiens, NCI-H929, 24 h) | solubility [3] | microsomal CLint at 5 μM [4] | microsomal CLint at 5 μM [5] | Human Liver Microsome Clint (μL/min/mg protein) [1] | IC50 (NCI-H929 cells; 24 hrs) | Solubility (pH 6.5, μg/mL) ([3]; PBS buffer pH 6.5) | Rat Liver Microsome Clint (μL/min/mg protein) [4] | Mouse Liver Microsome Clint (μL/min/mg protein) [5] | IC50 (OPM-2 cells; Homo sapiens, OPM-2, 24 h) | IC50 (OPM-2 cells; 24 hours)
1 | Cc1c(C(=O)O)n2c3ccc(Cl)c(c13)-c1c(nn3c1CCC3)CSCc1cc(n(C)n1)CSc1cc(c3ccc(F)cc3c1)OCCC2 [Cpd. No. 2, (Z)-1^5-chloro-9^6-fluoro-1^3,6^1-dimethyl-2^5,2^6-dihydro-1^1H,2^4H,6^1H-10-oxa-4,8-dithia-1(4,1)-indola-2(3,2)-pyrrolo[1,2-b]pyrazola-6(3,5)-pyrazola-9(3,1)-naphthalenacyclotridecaphane-1^2-carboxylic acid] | 18.2 µL/min/mg | 14 nM | 53 nM | < 1 µg/mL | 31.2 µL/min/mg | 53 µL/min/mg | – | – | – | – | – | 220 nM | –
2 | CNC(=O)Cn1nc(C)c2c1CSCc1cc(n(C)n1)CSc1cc(c3ccccc3c1)OCCCn1c(C(=O)O)c(C)c3c-2c(Cl)ccc31 [Cpd. No. 26, (Z)-1^5-chloro-1^3,2^3,6^1-trimethyl-2^1-(2-(methylamino)-2-oxoethyl)-1^1H,2^1H,6^1H-10-oxa-4,8-dithia-1(4,1)-indola-2(4,5),6(3,5)-dipyrazola-9(3,1)-naphthalenacyclotridecaphane-1^2-carboxylic acid] | 12.8 µL/min/mg | 14 nM | 300 nM | < 1 µg/mL | 14.2 µL/min/mg | 41.2 µL/min/mg | – | – | – | – | – | 992 nM | –
3 | Cc1c(C(=O)O)n2c3ccc(Cl)c(c13)-c1c(nn3c1COCC3)CN(S(=O)(=O)C1CC1)Cc1cc(n(C)n1)CSc1cc(c3ccc(F)cc3c1)OCCC2 [Cpd. No. 31, (Z)-1^5-chloro-4-(cyclopropylsulfonyl)-9^6-fluoro-1^3, 6^1-di methyl-2^6,2^7-dihydro-1^1H,2^4H,6^1H-10-oxa-8-thia-4-aza-2(3,2)-pyrazolo[5,1-c][1,4]oxazina-1(4,1)-indola-6(3,5)-pyrazola-9(3,1)-naphthalenacyclotridecaphane-1^2-carboxylic acid] | 7.4 µL/min/mg | 16 nM | 623 nM | – | 33 µL/min/mg | 45.2 µL/min/mg | – | – | – | – | – | 1940 nM | –
4 | Cc1c(C(=O)O)n2c3ccc(Cl)c(c13)-c1c(nn3c1CC(C)(C)C3)CSCc1cc(n(C)n1)CSc1cc(c3ccc(F)cc3c1)OCCC2 [Cpd. No. 3, (Z)-1^5-chloro-9^6-fluoro-1^3,2^5,2^5,6^1-tetramethyl-2^5,2^6-dihydro-1^1H,2^4H,6^1H-10-oxa-4,8-dithia-1(4,1)-indola-2(3,2)-pyrrolo[1,2-b]pyrazola-6(3,5)-pyrazola-9(3,1)-naphthalenacyclotridecaphane-1^2-carboxylic acid] | – | 14 nM | 391 nM | < 1 µg/mL | – | – | – | – | – | – | – | 386 nM | –
5 | Cc1ccc2c3c(C)c(C(=O)O)n2CCCOc2cc(cc4cc(F)ccc24)SCc2cc(nn2C)CSCc2nn(C)c(C)c2-c13 [Cpd. No. 22, (Z)-9^6-fluoro-1^3, 1^5,2^1,2^5,6^1-pentamethyl-1^1H,2^1H,6^1H-10-oxa-4,8-dithia-1(4,1)-indola-2(4,3), 6(3,5)-dipyrazola-9(3,1)-naphthalenacyclotridecaphane-1^2-carboxylic acid] | 11.8 µL/min/mg | 15 nM | 61 nM | – | 30.8 µL/min/mg | 32 µL/min/mg | – | – | – | – | – | 73 nM | –

The next lines start with results.

Row | microsomal CLint at 5 μM [1] | IC50 [2] | IC50 (NCI-H929 cells; Homo sapiens, NCI-H929, 24 h) | solubility [3] | microsomal CLint at 5 μM [4] | microsomal CLint at 5 μM [5] | Human Liver Microsome Clint (μL/min/mg protein) [1] | IC50 (NCI-H929 cells; 24 hrs) | Solubility (pH 6.5, μg/mL) ([3]; PBS buffer pH 6.5) | Rat Liver Microsome Clint (μL/min/mg protein) [4] | Mouse Liver Microsome Clint (μL/min/mg protein) [5] | SMILES | IC50 (OPM-2 cells; Homo sapiens, OPM-2, 24 h) | IC50 (OPM-2 cells; 24 hours)
6 | – | 14 nM | 479 nM | > 400 µg/mL | – | – | – | – | – | – | – | Cc1c2c(nn1C)CSCc1cc(n(C)n1)CSc1cc(c3ccccc3c1)OCCCn1c(C(=O)O)c(Cl)c3c-2c(Cl)ccc31 [Cpd. No. 9, (Z)-1^3,1^5-dichloro-2^1,2^5,6^1-trimethyl-1^1H,2^1H,6^1H-10-oxa-4,8-dithia-1(4,1)-indola-2(4,3),6(3,5)-dipyrazola-9(3,1)-naphthalenacyclotridecaphane-1^2-carboxylic acid] | 1250 nM | –
7 | 28.4 µL/min/mg | 21 nM | 87 nM | 4 µg/mL (≈ 5.3 µM) | 29.8 µL/min/mg | 53 µL/min/mg | – | – | – | – | – | Cc1c(C(=O)O)n2c3ccc(Cl)c(c13)-c1c(nn(C)c1C)CN(Cc1ncco1)Cc1cc(n(C)n1)CSc1cc(c3ccc(F)cc3c1)OCCC2 [Cpd. No. 52, (Z)-1^5-chloro-9^6-fluoro-1^3,2^1,2^5,6^1-tetramethyl-4-(oxazol-2-ylmethyl)-1^1H,2^1H,6^1H-10-oxa-8-thia-4-aza-1(4,1)-indola-2(4,3),6(3,5)-dipyrazola-9(3,1)-naphthalenacyclotridecaphane-1^2-carboxylic acid] | 699 nM | –
8 | < 2.8 µL/min/mg | 16 nM | 253 nM | 94 µg/mL (≈ 119 µM) | 12.6 µL/min/mg | 21.4 µL/min/mg | – | – | – | – | – | Cc1c(C(=O)O)n2c3ccc(Cl)c(c13)-c1c(nn(C)c1C(F)F)CN(S(C)(=O)=O)Cc1cc(n(C)n1)CSc1cc(c3ccc(F)cc3c1)OCCC2 [Cpd. No. 45, (Z)-1^5-chloro-2^5-(difluoromethyl)-9^6-fluoro-1^3,2^1,6^1-trimethyl-4-(methylsulfonyl)-1^1H,2^1H,6^1H-10-oxa-8-thia-4-aza-1(4,1)-indola-2(4,3),6(3,5)-dipyrazola-9(3,1)-naphthalenacyclotridecaphane-1^2-carboxylic acid] | 350 nM | –
9 | – | > 1000 nM | – | – | – | – | 38.0 μL/min/mg protein | 7440 nM | 6 μg/mL | 111 μL/min/mg protein | 245 μL/min/mg protein | Cc1c(C(=O)O)n2c3ccc(Cl)c(c13)-c1c(nn(C)c1C)CSCc1cc(n(C)n1)CSc1cc(c3ccccc3c1)OCCC2 (atropisomer, axis not shown) [Cpd. No. 7, (S)-(Z)-1^5-chloro-1^3,2^1,2^5,6^1-tetramethyl-1^1H,2^1H,6^111-10-oxa-4,8-dithia-1(4,1)-indola-2(4,3),6(3,5)-dipyrazola-9(3,1)-naphthalenacyclotridecaphane-1^2-carboxylic acid] | – | > 10000 nM
10 | – | 2600 nM | – | – | – | – | <2.8 μL/min/mg protein | 8520 nM | – | 13.0 μL/min/mg protein | 110 μL/min/mg protein | Cc1c(C(=O)O)n2c3ccc(Cl)c(c13)-c1c(nn(C)c1C)CN(S(C)(=O)=O)Cc1cc(n(C)n1)CSc1cc(c3ccc(F)cc3c1)OCCC2 [Cpd. No. 34, (S)-(Z)-1^5-chloro-9^6-fluoro-1^3,2^1,2^5,6^1-tetramethyl-4-(methylsulfonyl)-1^1H,2^1H, 6^1H-10-oxa-8-thia-4-aza-1(4,1)-indola-2(4,3),6(3,5)-dipyrazola-9(3,1)-naphthalenacyclotridecaphane-1^2-carboxylate] | – | > 10000 nM
11 | 53.2 µL/min/mg | 15 nM | 25 nM | – | 42 µL/min/mg | 156 µL/min/mg | – | – | – | – | – | Cc1c(C(=O)O)n2c3ccc(Cl)c(c13)-c1c(nn(C)c1C)CN(S(=O)(=O)C(F)(F)F)Cc1cc(n(C)n1)CSc1cc(c3ccc(F)cc3c1)OCCC2 [Cpd. No. 35, (Z)-1^5-chloro-9^6-fluoro-1^3,2^1,2^5,6^1-tetramethyl-4-((trifluoromethyl)sulfonyl)-1^1H,2^1H,6^1H-10-oxa-8-thia-4-aza-1(4,1)-indola-2(4,3),6(3,5)-dipyrazola-9(3,1)-naphthalenacyclotridecaphane-1^2-carboxylic acid] | 57 nM | –
